{
  "source": "ChEMBL document CHEMBL1155550",
  "about": "“Rationale design of biotinylated antimalarial endoperoxide carbon centered radical prodrugs for applications in proteomics” (J Med Chem, 2010)",
  "data": [
    {"tested_on": "Plasmodium falciparum", "test": "(§1) Antiplasmodial activity against chloroquine-sensitive Plasmodium falciparum 3D7 infected in human erythrocytes assessed as inhibition of [3H]hypoxanthine incorporation after 48 hrs by liquid scintillation counting", "assay_type": "functional, organism-based", "details": "not given; call rule not given here", "values": [
      {"smiles": "O=C(CCCC[C@@H]1SC[C@@H]2NC(=O)N[C@@H]21)NS(=O)(=O)c1cccc(CNC(=O)C23CC4CC(C2)[C@]2(OO[C@]5(CCCCC5)O2)C(C4)C3)c1", "IC50": "Not Active"}
    ]},
    {"tested_on": "Plasmodium falciparum", "test": "as §1", "assay_type": "functional, organism-based", "details": "Plasmodium falciparum, 3D7; read-out: IC50", "units": {"IC50": "nM"}, "values": [
      {"smiles": "COC(=O)C12CC3CC(C1)[C@]1(OO[C@]4(CCCCC4)O1)C(C3)C2", "IC50": 5.7},
      {"smiles": "C[C@H]1[C@@H](CCOC(=O)NCCCCC[C@@H]2SC[C@@H]3NC(=O)N[C@@H]32)O[C@@H]2O[C@]3(C)CC[C@H]4[C@H](C)CC[C@@H]1[C@@]24OO3", "IC50": 1.6},
      {"smiles": "O=C(NCc1cccc(CNC(=O)C23CC4CC(C2)[C@]2(OO[C@]5(CCCCC5)O2)C(C4)C3)c1)OCC1c2ccccc2-c2ccccc21", "IC50": 27},
      {"smiles": "O=C(NCCCC[C@H]1SC[C@H]2NC(=O)N[C@H]21)NCc1cccc(CNC(=O)C23CC4CC(C2)[C@]2(OO[C@]5(CCCCC5)O2)C(C4)C3)c1", "IC50": 2.4},
      {"smiles": "C[C@H]1[C@@H](CC(=O)NCc2cccc(CNC(=O)c3ccc(S(=O)(=O)NC(=O)CCCC[C@@H]4SC[C@@H]5NC(=O)N[C@@H]54)cc3)c2)O[C@@H]2O[C@]3(C)CC[C@H]4[C@H](C)CC[C@@H]1[C@@]24OO3", "IC50": "> 1000"},
      {"smiles": "C[C@H]1[C@@H](CC(=O)NCc2cccc(CNC(=O)CCSSCCNC(=O)CCCC[C@@H]3SC[C@@H]4NC(=O)N[C@@H]43)c2)O[C@@H]2O[C@]3(C)CC[C@H]4[C@H](C)CC[C@@H]1[C@@]24OO3", "IC50": 91},
      {"smiles": "OCC12CC3CC(C1)[C@]1(OO[C@]4(CCCCC4)O1)C(C3)C2", "IC50": 8.4},
      {"smiles": "O=C(O)C12CC3CC(C1)[C@]1(OO[C@]4(CCCCC4)O1)C(C3)C2", "IC50": 150},
      {"smiles": "CC(C)(C)OC(=O)NCc1cccc(CNC(=O)C23CC4CC(C2)[C@]2(OO[C@]5(CCCCC5)O2)C(C4)C3)c1", "IC50": 5.1}
    ]}
  ]
}
